The test concerns the target T1, (S)-2-HADH from P. aeruginosa NUST (Pseudomonas aeruginosa, UniProt R9RKA7).
T1 construct: synthetic gene in pET28b, E. coli BL21(DE3); resting cells; ~42 kDa on SDS-PAGE; FMN flavoprotein; strain also misprinted NSUT
T1 sequence (R9RKA7 1-393): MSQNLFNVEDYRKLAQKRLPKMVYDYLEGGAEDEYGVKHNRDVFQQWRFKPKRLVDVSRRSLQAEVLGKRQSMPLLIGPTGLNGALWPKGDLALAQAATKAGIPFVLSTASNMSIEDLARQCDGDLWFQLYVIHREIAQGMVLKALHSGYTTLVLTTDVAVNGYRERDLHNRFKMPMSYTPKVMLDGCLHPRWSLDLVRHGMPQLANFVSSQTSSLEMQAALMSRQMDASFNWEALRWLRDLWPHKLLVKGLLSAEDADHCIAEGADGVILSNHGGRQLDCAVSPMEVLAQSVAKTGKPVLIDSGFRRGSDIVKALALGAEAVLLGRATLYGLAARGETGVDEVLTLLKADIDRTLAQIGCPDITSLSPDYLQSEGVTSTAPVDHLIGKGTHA
Kind of test: apoenzyme reactivation. The format is biochemical. The settings on record: flavin removal, then addition of FMN.

On to `Cc1cc2nc3c(=O)[nH]c(=O)nc-3n(C[C@H](O)[C@H](O)[C@H](O)COP(=O)(O)O)c2cc1C` [FMN], for which the apoenzyme reactivation result was “The activity of the apoenzyme was partly reactivated by the addition of FMN”.

The values are drawn from publication PMC5034429, “Enantioselective cascade biocatalysis for deracemization of 2-hydroxy acids using a three-enzyme system” (Microbial Cell Factories, 2016).
